# According to patent US10385085B2, “Crystal forms of sialic acid or salt or solvate thereof” (Ultragenyx Pharmaceutical Inc., priority 2015, dated 2019):
# Experiment: Approximate solvent solubility screen (aliquot addition)
# Assay type: physicochemical
# Details: for solubility: 40 °C, thermodynamic from solid
# Description: Approximately 10 mg of sialic acid was used to check the solubility in 31 different solvents or solvent mixtures.
# 50 μl aliquots of solvent were added in attempts to dissolve the sialic acid. The volume range used varied between 50 μl and 2 ml. Dissolution was aided by heating to 40° C. and shaking the vial between aliquots.
# The mixture of solvents Ethanol:Acetone:Ethyl acetate (85:12:3 wt %) will be referred to as “Ethynol” hereafter.
compound,measurement,setting,value
"CC(=O)N[C@H]1[C@H]([C@H](O)[C@H](O)CO)OC(O)(C(=O)O)C[C@@H]1O (some centres unmarked) [Sialic acid, N-acetylneuraminic acid]",solubility,"aqueous with cosolvent or surfactant or cyclodextrin, solvent: Water:Acetic Acid (80:20) v/v",> 213000 µg/mL
same,solubility,"organic solvent or mixture, solvent: 1,4-Dioxane",< 4900 µg/mL
same,solubility,"organic solvent or mixture, solvent: 1-Butanol",< 6100 µg/mL
same,solubility,"organic solvent or mixture, solvent: 2-Ethoxy ethanol",< 6800 µg/mL
same,solubility,"organic solvent or mixture, solvent: 2-Methyl THF",< 5200 µg/mL
same,solubility,"organic solvent or mixture, solvent: 2-propanol",< 5000 µg/mL
same,solubility,"organic solvent or mixture, solvent: Acetic acid",< 5400 µg/mL
same,solubility,"organic solvent or mixture, solvent: Acetone",< 5600 µg/mL
same,solubility,"organic solvent or mixture, solvent: Acetone:Ethanol (50:50) v/v",< 5100 µg/mL
same,solubility,"organic solvent or mixture, solvent: Acetone:Ethyl Acetate (50:50) v/v",< 4800 µg/mL
same,solubility,"organic solvent or mixture, solvent: Acetone:Water (90:10) v/v",< 5100 µg/mL
same,solubility,"organic solvent or mixture, solvent: Acetonitrile",< 4800 µg/mL
same,solubility,"organic solvent or mixture, solvent: Dichloromethane",< 5100 µg/mL
same,solubility,"organic solvent or mixture, solvent: Diisopropyl ether",< 4800 µg/mL
same,solubility,"organic solvent or mixture, solvent: Dimethylacetamide",> 72600 µg/mL
same,solubility,"organic solvent or mixture, solvent: Dimethylsulfoxide",> 301000 µg/mL
same,solubility,"organic solvent or mixture, solvent: Ethanol",< 5100 µg/mL
same,solubility,"organic solvent or mixture, solvent: Ethanol:Water (90:10) v/v",< 5200 µg/mL
same,solubility,"organic solvent or mixture, solvent: Ethyl acetate",< 5800 µg/mL
same,solubility,"organic solvent or mixture, solvent: Ethynol (Ethanol:Acetone:Ethyl acetate 85:12:3 wt %)",< 5300 µg/mL
same,solubility,"organic solvent or mixture, solvent: Isopropyl acetate",< 6500 µg/mL
same,solubility,"organic solvent or mixture, solvent: Methanol",< 5200 µg/mL
same,solubility,"organic solvent or mixture, solvent: Methylethyl ketone",< 5700 µg/mL
same,solubility,"organic solvent or mixture, solvent: Methylisobutyl ketone",< 6300 µg/mL
same,solubility,"organic solvent or mixture, solvent: N-Methyl-2-pyrrolidone",> 72100 µg/mL
same,solubility,"organic solvent or mixture, solvent: Nitromethane",< 6000 µg/mL
same,solubility,"organic solvent or mixture, solvent: Tetrahydrofuran",< 5300 µg/mL
same,solubility,"organic solvent or mixture, solvent: Toluene",< 5900 µg/mL
same,solubility,"organic solvent or mixture, solvent: n-Heptane",< 5300 µg/mL
same,solubility,"organic solvent or mixture, solvent: tert-Butylmethyl ether",< 4600 µg/mL
same,solubility,solvent: Water,> 212000 µg/mL
same,Visual Observation,"solvent: 1,4-Dioxane",Partial Solubility
same,Visual Observation,solvent: 1-Butanol,Partial Solubility
same,Visual Observation,solvent: 2-Ethoxy ethanol,Partial Solubility
same,Visual Observation,solvent: 2-Methyl THF,Partial Solubility
same,Visual Observation,solvent: 2-propanol,Partial Solubility
same,Visual Observation,solvent: Acetic acid,Partial Solubility
same,Visual Observation,solvent: Acetone,Low Solubility
same,Visual Observation,solvent: Acetone:Ethanol (50:50) v/v,Partial Solubility
same,Visual Observation,solvent: Acetone:Ethyl Acetate (50:50) v/v,Low Solubility
same,Visual Observation,solvent: Acetone:Water (90:10) v/v,Partial Solubility
same,Visual Observation,solvent: Acetonitrile,Low Solubility
same,Visual Observation,solvent: Dichloromethane,Partial Solubility
same,Visual Observation,solvent: Diisopropyl ether,Low Solubility
same,Visual Observation,solvent: Dimethylacetamide,Soluble
same,Visual Observation,solvent: Dimethylsulfoxide,Soluble
same,Visual Observation,solvent: Ethanol,Partial Solubility
same,Visual Observation,solvent: Ethanol:Water (90:10) v/v,Partial Solubility
same,Visual Observation,solvent: Ethyl acetate,Extremely low
same,Visual Observation,solvent: Ethynol (Ethanol:Acetone:Ethyl acetate 85:12:3 wt %),Partial Solubility
same,Visual Observation,solvent: Isopropyl acetate,Extremely low
same,Visual Observation,solvent: Methanol,Partial Solubility
same,Visual Observation,solvent: Methylethyl ketone,Partial Solubility
same,Visual Observation,solvent: Methylisobutyl ketone,Low Solubility
same,Visual Observation,solvent: N-Methyl-2-pyrrolidone,Soluble
same,Visual Observation,solvent: Nitromethane,Low Solubility
same,Visual Observation,solvent: Tetrahydrofuran,Low Solubility
same,Visual Observation,solvent: Toluene,Partial Solubility
same,Visual Observation,solvent: Water,Soluble
same,Visual Observation,solvent: Water:Acetic Acid (80:20) v/v,Soluble
same,Visual Observation,solvent: n-Heptane,Extremely low
same,Visual Observation,solvent: tert-Butylmethyl ether,Extremely low
